Key:
CFTR R1162X = test: Functional CFTR channel activity, TECC-24 electrophysiology, 16HBE cells (CFTR R1162X readthrough); format: cell-based, human
Procedure: (§1) 16HBE human bronchial epithelial cells were seeded onto Transwell 24-well filter inserts coated with human collagen type IV. Cells were seeded 7 days prior to functional testing at a density of 1.7×10^5 cells onto the “apical” chamber filter of the Transwell insert. Cells were grown as submerged cultures (200 μL apical/700 μL basolateral) in Minimal Essential Medium (MEM) containing 10% qualified Fetal Bovine Serum and 1% Penicillin/Streptomycin and incubated at 37° C. and 5% CO2. Growth media on cells was replenished with fresh media every 1-3 days prior to test agent treatment day. After 7 days in culture, the CFTR-mediated chloride (Cl^−) equivalent current (Ieq) of the 16HBE cells was recorded, which may typically form electrically tight epithelia with a transepithelial resistance (Rt) of 2000-6000 Ω·cm2 as described below. Forty-eight hours prior to electrophysiological measurements, fresh growth media containing the test agents was applied to both chambers separating filter bound epithelial monolayer.
(§2) On the day of electrophysiology studies, electrodes of a “Multi-(24-channel) transepithelial current clamp amplifier” (MTECC-24 (TECC-24 for short), EP Devices, Belgium) were soaked in an assay buffer (see below for composition) for at least 2 hours using 24-well Transwell plates without inserts. Cell culture media was replaced in the Transwell assay plates with assay buffer (see below) and the plates were mounted onto a custom-built automated robotic assay platform (Yamaha RCX240S controller) with heated plate holders set at 37° C. for 60 min. After equilibration, transepithelial potential difference (PD) and resistance (Rt) was monitoredat ˜5 min intervals using the TECC-24 transepithelial current clamp. Electrode potential differences were monitored for each pair of Ag/AgCl voltage electrodes by taking voltage measurements from a control (“blank”) plate with matching buffer solutions and 16HBE cells that were not treated with any test agent. PD values for each electrode pair were subtracted from the blank plate from that of the test plates at each time point. Ieq was calculated from the corrected PD values and Rt using Ohm's law. Ieq values were slope corrected to account for measurement drift over time using the equation: Slope corrected value=calculated Ieq−((time x slope)+y-intercept) with the slope and y-intercept calculated from the data points captured during the initial baseline period and following addition of the CFTR inhibitor.
(§3) The equivalent current (Ieq) traces associated with CFTR channel activation were plotted as baseline subtracted mean±standard deviation from 3-4 separate wells on the 24-well Transwell (n=3-4). There are 4 recording periods, with the first set of data points recorded baseline Ieq currents prior to sequential activation of available CFTR channels with forskolin (10 μM) and then in combination with potentiator VX-770/ivacaftor (1 μM). Recorded the last set of data points in the presence of CFTR inhibitor CFTRinh-172 (20 μM) to confirm that currents are mediated via activation of CFTR channels. The test agents and control/reference compounds were pre-diluted to 10-fold concentrations in assay buffer and added manually using a multi-channel pipette to both the basolateral and apical side of the membrane (test plates only). Employed CFTR-mediated changes in Ieq, (i.e. forskolin/VX-770 activated currents) to measure functional CFTR surface expression or treatment-related functional rescue of mutant CFTR.
(§4) The magnitude of test agent mediated enhancement of functional CFTR currents was calculated by comparing forskolin/VX-770 stimulated Ieq relative to baseline/CFTRinh-172 Ieq following 48 hour pretreatment with test agent(s) and normalizing to the forskolin/VX-770 stimulated Ieq determined following 48 hour pretreatment with a maximally effective concentration a reference control aminoglycoside agent (typically 110 μM G418). […]

CFTR G542X = test: Functional CFTR channel activity, TECC-24 electrophysiology, 16HBE cells (CFTR G542X readthrough); format: cell-based, human
Procedure: as §1, §2, §3, §4

[1] = RTM 3 uM, eRF3 modulator (CC-90009) 1 uM, ELX-02 100 uM
[2] = RTM 1 uM, eRF3 modulator (CC-90009) 1 uM, ELX-02 100 uM
[3] = RTM conc. —, eRF3 modulator (CC-90009) 1 uM, ELX-02 100 uM
[4] = RTM 5 uM, no eRF3 modulator, G418 10 uM
[5] = RTM 0.5 uM, no eRF3 modulator, ELX-02 100 uM
[6] = RTM 1 uM, no eRF3 modulator, ELX-02 100 uM

OCc1ncn(-c2ncc(OCc3c(Cl)cccc3C(F)(F)F)cn2)n1 [drawing 812]
Currents (% of 110 μM G418 (Max effect)) (CFTR R1162X; [1]): 288 % of 110 μM G418 (Max effect)

O=C1N[C@H](CO)CN1c1ccc(OCc2c(Cl)cccc2Cl)cn1 [drawing 833]
Currents (% of 110 μM G418 (Max effect)) (CFTR G542X; [2]): 293 % of 110 μM G418 (Max effect)

Cc1cccc(C(F)(F)F)c1COc1ccc(-c2nc(CO)n[nH]2)cc1 [drawing 829]
Currents (% of 110 μM G418 (Max effect)) (CFTR G542X; [3]): 83 % of 110 μM G418 (Max effect)

OCc1ncn(-c2ncc(OCc3c(Cl)cccc3C(F)(F)F)cn2)n1 [drawing 811]
Currents (% of 110 μM G418 (Max effect)) (CFTR R1162X; [3]): 77 % of 110 μM G418 (Max effect)

O=C1O[C@@H](CO)CN1c1ccc(OCc2c(Cl)cccc2Cl)cc1 [drawing 819]
Currents (% of 110 μM G418 (Max effect)) (CFTR R1162X; [4]): 81 % of 110 μM G418 (Max effect)

OCc1ncn(-c2ncc(OCc3c(Cl)cccc3C(F)(F)F)cn2)n1 [drawing 836]
Currents (% of 110 μM G418 (Max effect)) (CFTR G542X; [1]): 263 % of 110 μM G418 (Max effect)

OCc1cn(-c2ncc(OCc3c(Cl)cccc3Cl)cn2)cn1 [drawing 799]
Currents (% of 110 μM G418 (Max effect)) (CFTR R1162X; [5]): 51 % of 110 μM G418 (Max effect)

Cc1cccc(C(F)(F)F)c1COc1ccc(N2CC(CO)OC2=O)cc1 (centres unmarked) [drawing 815]
Currents (% of 110 μM G418 (Max effect)) (CFTR R1162X; RTM 1 uM, no eRF3 modulator, G418 10 uM): 76 % of 110 μM G418 (Max effect)

OCc1cn(-c2ncc(OCc3c(Cl)cccc3Cl)cn2)cn1 [drawing 823]
Currents (% of 110 μM G418 (Max effect)) (CFTR G542X; [5]): 50 % of 110 μM G418 (Max effect)

OCc1ccn(-c2ncc(OCc3c(Cl)cccc3Cl)cn2)n1 [drawing 827]
Currents (% of 110 μM G418 (Max effect)) (CFTR G542X; [2]): 278 % of 110 μM G418 (Max effect)

OCc1ccn(-c2ncc(OCc3c(Cl)cccc3Cl)cn2)n1 [drawing 825]
Currents (% of 110 μM G418 (Max effect)) (CFTR G542X; [6]): 94 % of 110 μM G418 (Max effect)

OCc1cn(-c2ncc(OCc3c(Cl)cccc3Cl)cn2)cn1 [drawing 797]
Currents (% of 110 μM G418 (Max effect)) (CFTR R1162X; RTM 0.5 uM, no eRF3 modulator, G418 10 uM): 64 % of 110 μM G418 (Max effect)

O=C1O[C@@H](CO)CN1c1ccc(OCc2c(Cl)cccc2Cl)cc1 [drawing 820]
Currents (% of 110 μM G418 (Max effect)) (CFTR R1162X; RTM 5 uM, eRF3 modulator (CC-90009) 10 uM, G418 10 uM): 320 % of 110 μM G418 (Max effect)

OCc1ncn(-c2ncc(OCc3c(Cl)cccc3C(F)(F)F)cn2)n1 [drawing 835]
Currents (% of 110 μM G418 (Max effect)) (CFTR G542X; [3]): 60 % of 110 μM G418 (Max effect)

O=C1N[C@H](CO)CN1c1ccc(OCc2c(Cl)cccc2Cl)cn1 [drawing 831]
Currents (% of 110 μM G418 (Max effect)) (CFTR G542X; [6]): 79 % of 110 μM G418 (Max effect)

Cc1cccc(C(F)(F)F)c1COc1ccc(-c2nc(CO)n[nH]2)cc1 [drawing 828]
Currents (% of 110 μM G418 (Max effect)) (CFTR G542X; [6]): 109 % of 110 μM G418 (Max effect)

O=C1N[C@H](CO)CN1c1ccc(OCc2c(Cl)cccc2Cl)cn1 [drawing 809]
Currents (% of 110 μM G418 (Max effect)) (CFTR R1162X; [2]): 266 % of 110 μM G418 (Max effect)

Cc1cccc(C(F)(F)F)c1COc1ccc(-c2nc(CO)n[nH]2)cc1 [drawing 806]
Currents (% of 110 μM G418 (Max effect)) (CFTR R1162X; [2]): 269 % of 110 μM G418 (Max effect)

OCc1cn(-c2ncc(OCc3c(Cl)cccc3Cl)cn2)cn1 [drawing 800]
Currents (% of 110 μM G418 (Max effect)) (CFTR R1162X; RTM 0.5 uM, eRF3 modulator (CC-90009) 1 uM, ELX-02 100 uM): 473 % of 110 μM G418 (Max effect)

OCc1ncn(-c2ncc(OCc3c(Cl)cccc3C(F)(F)F)cn2)n1 [drawing 834]
Currents (% of 110 μM G418 (Max effect)) (CFTR G542X; RTM 3 uM, no eRF3 modulator, ELX-02 100 uM): 111 % of 110 μM G418 (Max effect)

OCc1cn(-c2ncc(OCc3c(Cl)cccc3Cl)cn2)cn1 [drawing 822]
Currents (% of 110 μM G418 (Max effect)) (CFTR G542X; RTM 0.5 uM, eRF3 modulator (CC-90009) 1 uM, G418 10 uM): 429 % of 110 μM G418 (Max effect)

OCc1cn(-c2ncc(OCc3c(Cl)cccc3Cl)cn2)cn1 [drawing 813]
Currents (% of 110 μM G418 (Max effect)) (CFTR R1162X; RTM 0.5 uM, no eRF3 modulator, Paramomycin 2000 uM): 7 % of 110 μM G418 (Max effect)

O=C1O[C@H](CO)CN1c1ccc(OCc2c(Cl)cccc2Cl)cc1 [drawing 817]
Currents (% of 110 μM G418 (Max effect)) (CFTR R1162X; [4]): 54 % of 110 μM G418 (Max effect)

Reference: US20250228865A1, “COMPOUNDS FOR ENHANCING READ THROUGH OF GENES CONTAINING PREMATURE TERMINATION CODONS AND METHODS FOR MAKING AND USING THE SAME” (Sanofi US Services Inc., priority 2022, published 2025)
